Test results taken from article PMC4054954 (Brain research, 2011).
Entries after “also recorded” stand apart in the source; their conditions may differ.

Test system: HT-22 cells
Experiment: HT-22 cell-based glutamate cytoprotection assay
Design: species or system murine
Settings: for cytoprotection / neuroprotection of HT-22 cells (in words): glutamate-induced oxidative stress cell death

| Compound | cytoprotection / neuroprotection of HT-22 cells (in words) | EC50 (Mus musculus, HT-22, read-out: cytoprotective EC50) [µM] |
| --- | --- | --- |
| O=C(CCCN1CCC(O)(c2ccc(Cl)cc2)CC1)c1ccc(F)cc1 [haloperidol] | potent neuroprotective agent; also recorded: protective | – |
| O=C(OCCN1CCOCC1)C1(c2ccccc2)CCCCC1 [PRE-084] | not cytoprotective | – |
| CC(C)=CCN1CC[C@]2(C)c3cc(O)ccc3C[C@H]1[C@H]2C [(+)-pentazocine] | not to be neuroprotective; also recorded: not cytoprotective | > 4 |
